Structures are written as SMILES.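 Values below derive from 48-hour exposures of cells grown in 96-well plates, with endpoints linearly interpolated between the two concentrations bracketing the appropriate inhibition level. TGI: total growth inhibition.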

From PubChem BioAssay (NCI) come the findings set out here.

Test systems include SK-OV-3 ovarian; SF-268 CNS; OVCAR-3 ovarian; PC-3 prostate; SN12C renal; HL-60(TB) leukemia; MCF7 breast; HOP-62 NSCLC; LOX IMVI melanoma; MDA-MB-435; OVCAR-4 ovarian; ACHN renal; A549 NSCLC; DU-145 prostate; NCI-H522 lung; NCI-H460 lung; BT-549 breast; HOP-92 NSCLC.
What all share (experiment): NCI anticancer screen, dose series, 48 h

Regarding `O=c1[nH]nc(-c2ccccc2)n1/N=C/c1ccccc1Cl`, the TGI in the assay with SK-OV-3 ovarian is over 100 µM; with SF-268 CNS it was over 100 µM; with OVCAR-3 ovarian, 57.9 µM; with PC-3 prostate it was 57.6 µM; with SN12C renal, over 100 µM; in the assay with HL-60(TB) leukemia, 48 µM. In addition, the TGI in the assay on MCF7 breast is over 100 µM; in the assay with HOP-62 NSCLC it was over 100 µM; in the assay on LOX IMVI melanoma it was over 100 µM; in the assay on MDA-MB-435 it was 60.2 µM; in the assay with OVCAR-4 ovarian it was over 100 µM; in the assay with ACHN renal, over 100 µM. In addition, the TGI is over 100 µM with A549 NSCLC; over 100 µM in the assay with DU-145 prostate; 43.9 µM with NCI-H522 lung; 32.2 µM in the assay with NCI-H460 lung; over 100 µM with BT-549 breast; over 100 µM in the assay with HOP-92 NSCLC.

With `Cc1ccnc2[nH]c(-c3ccc(F)cc3)cc(=O)c12`, the TGI in the assay on SK-OV-3 ovarian is over 100 µM; in the assay with SF-268 CNS, over 100 µM; with OVCAR-3 ovarian, over 100 µM; in the assay with PC-3 prostate it was over 100 µM; in the assay on SN12C renal it was over 100 µM; in the assay with HL-60(TB) leukemia, 38.5 µM. The TGI with MCF7 breast was over 100 µM; with HOP-62 NSCLC it was over 100 µM; in the assay with LOX IMVI melanoma, over 100 µM; with MDA-MB-435 it was over 44.8 µM; in the assay with OVCAR-4 ovarian it was over 100 µM; in the assay with ACHN renal, over 100 µM. For the same molecule, the TGI was over 100 µM in the assay with A549 NSCLC; over 100 µM in the assay on DU-145 prostate; over 66.8 µM with NCI-H522 lung; over 60.4 µM with NCI-H460 lung; over 100 µM with BT-549 breast; over 100 µM in the assay on HOP-92 NSCLC.

For the molecule `C[N+](C)(C)CC(=O)N/N=C(\C(=O)NC1=C(Cl)C(=O)c2ccccc2C1=O)C(C#N)c1nc(-c2ccc([N+](=O)[O-])cc2)cs1` (centres undefined), the TGI in the assay on SK-OV-3 ovarian was 41.8 µM; in the assay with SF-268 CNS it was 38.4 µM; in the assay on OVCAR-3 ovarian, 4.44 µM; in the assay with PC-3 prostate it was 56.8 µM; in the assay with SN12C renal it was 28.2 µM; with HL-60(TB) leukemia, 47.4 µM. Moreover, the TGI in the assay with MCF7 breast was 22.3 µM; in the assay with HOP-62 NSCLC, 34.4 µM; in the assay on LOX IMVI melanoma, 9.48 µM; in the assay with MDA-MB-435, 3.17 µM; with OVCAR-4 ovarian, 23.3 µM; in the assay with ACHN renal, 26 µM. In addition, the TGI with A549 NSCLC is 19.4 µM; with DU-145 prostate it was 14.1 µM; in the assay with NCI-H522 lung, 19.2 µM; in the assay on NCI-H460 lung, 25.2 µM; in the assay on BT-549 breast it was 15.1 µM; with HOP-92 NSCLC, 29 µM.
